Measured values taken from patent publication US9067977B2, “Peptides derivatized with A-B-C-D- and their therapeutical use” (Novo Nordisk A/S, priority 2007, dated 2015).

What was measured:
[1] = target: T1, human serum albumin (HSA) (Homo sapiens, UniProt P02768); assay: in vitro; details: pH 7.4
Experimental: (§1) Streptavidin-SPA beads (GE Healthcare RPNQ0009) were incubated with biotinylated HSA for 5 hours. The beads were washed with buffer to remove unbound HSA. […] After 20 hours of gentle rocking at room temperature the plates were centrifuged and counted on a TopCounter.

[2] = target: T1, human serum albumin (HSA); assay: Albumin binding affinity, competition scintillation proximity assay
Experimental: as §1

T1 sequence (P02768 25-609): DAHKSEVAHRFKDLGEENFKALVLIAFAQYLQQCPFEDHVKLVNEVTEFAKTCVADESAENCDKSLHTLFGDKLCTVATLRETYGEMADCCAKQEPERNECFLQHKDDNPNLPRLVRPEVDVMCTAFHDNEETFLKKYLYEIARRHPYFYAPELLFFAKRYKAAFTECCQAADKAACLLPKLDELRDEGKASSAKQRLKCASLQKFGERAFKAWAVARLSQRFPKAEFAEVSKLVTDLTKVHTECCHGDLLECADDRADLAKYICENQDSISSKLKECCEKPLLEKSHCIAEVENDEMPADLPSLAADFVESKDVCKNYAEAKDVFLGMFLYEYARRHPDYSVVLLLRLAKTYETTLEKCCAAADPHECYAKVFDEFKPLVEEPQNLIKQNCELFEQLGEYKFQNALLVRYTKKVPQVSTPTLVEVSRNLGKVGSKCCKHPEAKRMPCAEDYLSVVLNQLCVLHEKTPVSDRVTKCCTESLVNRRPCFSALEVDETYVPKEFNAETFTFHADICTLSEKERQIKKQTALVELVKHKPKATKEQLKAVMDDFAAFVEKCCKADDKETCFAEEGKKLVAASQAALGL

Row | Compound | EC50 [2] [nM] | other results
1 | CC[C@H](C)[C@H](NC(=O)[C@H](Cc1ccccc1)NC(=O)[C@H](CCC(=O)O)NC(=O)[C@H](CCCCNC(=O)COCCOCCNC(=O)CC[C@H](NC(=O)CC[C@H](NC(=O)CCCCCCCCCCCNC(=O)CCCS(=O)(=O)NC(=O)CCCCCCCCCCCCCCCc1nnn[nH]1)C(=O)O)C(=O)O)NC(=O)[C@H](C)NC(=O)[C@H](C)NC(=O)[C@H](CCC(N)=O)NC(=O)CNC(=O)[C@H](CCC(=O)O)NC(=O)[C@H](CC(C)C)NC(=O)[C@H](Cc1ccc(O)cc1)NC(=O)[C@H](CO)NC(=O)[C@H](CO)NC(=O)[C@@H](NC(=O)[C@H](CC(=O)O)NC(=O)[C@H](CO)NC(=O)[C@@H](NC(=O)[C@H](Cc1ccccc1)NC(=O)[C@@H](NC(=O)CNC(=O)[C@H](CCC(=O)O)NC(=O)C(C)(C)NC(=O)[C@@H](N)Cc1c[nH]cn1)[C@@H](C)O)[C@@H](C)O)C(C)C)C(=O)N[C@@H](C)C(=O)N[C@@H](Cc1c[nH]c2ccccc12)C(=O)N[C@@H](CC(C)C)C(=O)N[C@@H](CCCCN)C(=O)NCC(=O)O [Example 43, N-epsilon26-[2-(2-{2-[(S)-4-Carboxy-4-((S)-4-carboxy-4-{12-[4-(16-(1H-tetrazol-5-yl)hexadecanoylsulfamoyl)butyrylamino]dodecanoylamino}butyrylamino)butyrylamino]ethoxy}ethoxy)acetyl][Aib8,Lys33,Arg34]GLP-1-(7-34)] |  | EC50 [1]: 1 to 100 nM
2 | CC[C@H](C)[C@H](NC(=O)[C@H](Cc1ccccc1)NC(=O)[C@H](CCC(=O)O)NC(=O)[C@H](CCCCNC(=O)COCCOCCNC(=O)CC[C@H](NC(=O)CC[C@H](NC(=O)CCCCCCCCCCCNC(=O)CCCS(=O)(=O)NC(=O)CCCCCCCCCCCCCCCc1nnn[nH]1)C(=O)O)C(=O)O)NC(=O)[C@H](C)NC(=O)[C@H](C)NC(=O)[C@H](CCC(N)=O)NC(=O)CNC(=O)[C@H](CCC(=O)O)NC(=O)[C@H](CC(C)C)NC(=O)[C@H](Cc1ccc(O)cc1)NC(=O)[C@H](CO)NC(=O)[C@H](CO)NC(=O)[C@@H](NC(=O)[C@H](CC(=O)O)NC(=O)[C@H](CO)NC(=O)[C@@H](NC(=O)[C@H](Cc1ccccc1)NC(=O)[C@@H](NC(=O)CNC(=O)[C@H](CCC(=O)O)NC(=O)C(C)(C)NC(=O)[C@@H](N)Cc1c[nH]cn1)[C@@H](C)O)[C@@H](C)O)C(C)C)C(=O)N[C@@H](C)C(=O)N[C@@H](Cc1c[nH]c2ccccc12)C(=O)N[C@@H](CC(C)C)C(=O)N[C@H](C(=O)N[C@@H](CCCNC(=N)N)C(=O)NCC(=O)O)C(C)C [Example 39, N-epsilon26-[2-(2-{2-[(S)-4-Carboxy-4-((S)-4-carboxy-4-{12-[4-(16-(1H-tetrazol-5-yl)hexadecanoylsulfamoyl)butyrylamino]dodecanoylamino}butyrylamino)butyrylamino]ethoxy}ethoxy)acetyl][Aib8,Arg34]GLP-1-(7-35)] |  | EC50 at 20 h [1]: 1 to 100 nM
3 | CC[C@H](C)[C@H](NC(=O)[C@H](Cc1ccccc1)NC(=O)[C@H](CCC(=O)O)NC(=O)[C@H](CCCNC(=N)N)NC(=O)[C@H](C)NC(=O)[C@H](C)NC(=O)[C@H](CCC(N)=O)NC(=O)[C@H](CCC(=O)O)NC(=O)[C@H](CCC(=O)O)NC(=O)[C@H](CC(C)C)NC(=O)[C@H](Cc1ccc(O)cc1)NC(=O)[C@H](CO)NC(=O)[C@H](CO)NC(=O)[C@@H](NC(=O)[C@H](CC(=O)O)NC(=O)[C@H](CO)NC(=O)[C@@H](NC(=O)[C@H](Cc1ccccc1)NC(=O)[C@@H](NC(=O)CNC(=O)[C@H](CCC(=O)O)NC(=O)[C@H](C)NC(=O)Cc1c[nH]cn1)[C@@H](C)O)[C@@H](C)O)C(C)C)C(=O)N[C@@H](C)C(=O)N[C@@H](Cc1c[nH]c2ccccc12)C(=O)N[C@@H](CC(C)C)C(=O)N[C@H](C(=O)N[C@@H](CCCNC(=N)N)C(=O)NCC(=O)N[C@@H](CCCNC(=N)N)C(=O)N[C@@H](CCCCNC(=O)COCCOCCNC(=O)COCCOCCNC(=O)CC[C@H](NC(=O)[C@H]1CC[C@H](CNC(=O)CCCCCCCCCCCCCCCCCCC(=O)O)CC1)C(=O)O)C(=O)O)C(C)C [Example 54, N-alpha8-[2-(4-imidazolyl)acetyl] N-epsilon37-[2-(2-{2-[2-(2-{2-[(S)-4-Carboxy-4-({trans-4-[(19-carboxynonadecanoylamino)methyl]cyclohexanecarbonyl}amino)butyrylamino]ethoxy}ethoxy)acetylamino]ethoxy}ethoxy)acetyl][Glu22,Arg26,Arg34,Lys37]GLP-1-(8-37)] |  | EC50 at 20 h ([2]; human, pH 7.4): 150 to 300 nM

Now from value to compound, other results behind:

Row | EC50 [2] [nM] | Compound | other results
4 | 300 to 800 | CC[C@H](C)[C@H](NC(=O)[C@H](Cc1ccccc1)NC(=O)[C@H](CCC(=O)O)NC(=O)[C@H](CCCNC(=N)N)NC(=O)[C@H](C)NC(=O)[C@H](C)NC(=O)[C@H](CCC(N)=O)NC(=O)CNC(=O)[C@H](CCC(=O)O)NC(=O)[C@H](CC(C)C)NC(=O)[C@H](Cc1ccc(O)cc1)NC(=O)[C@H](CO)NC(=O)[C@H](CO)NC(=O)[C@@H](NC(=O)[C@H](CC(=O)O)NC(=O)[C@H](CO)NC(=O)[C@@H](NC(=O)[C@H](Cc1ccccc1)NC(=O)[C@@H](NC(=O)CNC(=O)[C@H](CCC(=O)O)NC(=O)[C@H](C)NC(=O)CCc1c[nH]cn1)[C@@H](C)O)[C@@H](C)O)C(C)C)C(=O)N[C@@H](C)C(=O)N[C@@H](Cc1c[nH]c2ccccc12)C(=O)N[C@@H](CC(C)C)C(=O)N[C@H](C(=O)N[C@@H](CCCNC(=N)N)C(=O)NCC(=O)N[C@@H](CCCNC(=N)N)C(=O)N[C@@H](CCCCNC(=O)COCCOCCNC(=O)COCCOCCNC(=O)CC[C@H](NC(=O)C1CCN(C(=O)CCCCCCCCCCCCCCCCCCC(=O)O)CC1)C(=O)O)C(=O)O)C(C)C [Example 60, N-epsilon37-(2-{2-[2-(2-{2-[2-((S)-4-Carboxy-4-{[1-(19-carboxynonadecanoyl)piperidine-4-carbonyl]amino}butyrylamino)ethoxy]ethoxy}acetylamino)ethoxy]ethoxy}acetyl) [DesaminoHis7,Arg26,Arg34,Lys37]GLP-1-(7-37)] | 
5 | 800 to 2000 | CC[C@H](C)[C@H](NC(=O)[C@H](Cc1ccccc1)NC(=O)[C@H](CCC(=O)O)NC(=O)[C@H](CCCNC(=N)N)NC(=O)[C@H](C)NC(=O)[C@H](C)NC(=O)[C@H](CCC(N)=O)NC(=O)[C@H](CCC(=O)O)NC(=O)[C@H](CCC(=O)O)NC(=O)[C@H](CC(C)C)NC(=O)[C@H](Cc1ccc(O)cc1)NC(=O)[C@H](CO)NC(=O)[C@H](CO)NC(=O)[C@@H](NC(=O)[C@H](CC(=O)O)NC(=O)[C@H](CO)NC(=O)[C@@H](NC(=O)[C@H](Cc1ccccc1)NC(=O)[C@@H](NC(=O)CNC(=O)[C@H](CCC(=O)O)NC(=O)[C@H](C)NC(=O)CCc1c[nH]cn1)[C@@H](C)O)[C@@H](C)O)C(C)C)C(=O)N[C@@H](C)C(=O)N[C@@H](Cc1c[nH]c2ccccc12)C(=O)N[C@@H](CC(C)C)C(=O)N[C@H](C(=O)N[C@@H](CCCNC(=N)N)C(=O)NCC(=O)N[C@@H](CCCNC(=N)N)C(=O)N[C@@H](CCCCNC(=O)COCCOCCNC(=O)COCCOCCNC(=O)CC[C@H](NC(=O)[C@H]1CC[C@H](CNC(=O)CCCCCCCCCCCCCCCCCCC(=O)O)CC1)C(=O)O)C(N)=O)C(C)C [Example 24, N-epsilon37-[2-(2-{2-[2-(2-{2-[(S)-4-Carboxy-4-({trans-4-[(19-carboxy-nonadecanoylamino)methyl]cyclohexanecarbonyl}amino)butyrylamino]ethoxy}ethoxy)acetylamino]ethoxy}ethoxy)acetyl][DesaminoHis7,Glu22,Arg26,Arg34,Lys37]GLP-1-(7-37)amide] | 
6 | 800 to 2000 | CC[C@H](C)[C@H](NC(=O)[C@H](Cc1ccccc1)NC(=O)[C@H](CCC(=O)O)NC(=O)[C@H](CCCNC(=N)N)NC(=O)[C@H](C)NC(=O)[C@H](C)NC(=O)[C@H](CCC(N)=O)NC(=O)[C@H](CCC(=O)O)NC(=O)[C@H](CCC(=O)O)NC(=O)[C@H](CC(C)C)NC(=O)[C@H](Cc1ccc(O)cc1)NC(=O)[C@H](CO)NC(=O)[C@H](CO)NC(=O)[C@@H](NC(=O)[C@H](CC(=O)O)NC(=O)[C@H](CO)NC(=O)[C@@H](NC(=O)[C@H](Cc1ccccc1)NC(=O)[C@@H](NC(=O)CNC(=O)[C@H](CCC(=O)O)NC(=O)[C@H](C)NC(=O)CCc1c[nH]cn1)[C@@H](C)O)[C@@H](C)O)C(C)C)C(=O)N[C@@H](C)C(=O)N[C@@H](Cc1c[nH]c2ccccc12)C(=O)N[C@@H](CC(C)C)C(=O)N[C@H](C(=O)N[C@@H](CCCNC(=N)N)C(=O)NCC(=O)N[C@@H](CCCNC(=N)N)C(=O)N[C@@H](CCCCNC(=O)COCCOCCNC(=O)COCCOCCNC(=O)CC[C@H](NC(=O)[C@H]1CC[C@H](CNC(=O)CCCCCCCCCCCCCCCCCCC(=O)O)CC1)C(=O)O)C(=O)O)C(C)C [Example 26, N-epsilon37-[2-(2-{2-[2-(2-{2-[(S)-4-Carboxy-4-({trans-4-[(19-carboxy-nonadecanoylamino)methyl]cyclohexanecarbonyl}amino)butyrylamino]ethoxy}ethoxy)acetylamino]ethoxy}ethoxy)acetyl][DesaminoHis7,Glu22,Arg26,Arg34,Lys37]GLP-1-(7-37)] | 
7 | 800 to 2000 | CC[C@H](C)[C@H](NC(=O)[C@H](Cc1ccccc1)NC(=O)[C@H](CCC(=O)O)NC(=O)[C@H](CCCNC(=N)N)NC(=O)[C@H](C)NC(=O)[C@H](C)NC(=O)[C@H](CCC(N)=O)NC(=O)[C@H](CCC(=O)O)NC(=O)[C@H](CCC(=O)O)NC(=O)[C@H](CC(C)C)NC(=O)[C@H](Cc1ccc(O)cc1)NC(=O)[C@H](CO)NC(=O)[C@H](CO)NC(=O)[C@@H](NC(=O)[C@H](CC(=O)O)NC(=O)[C@H](CO)NC(=O)[C@@H](NC(=O)[C@H](Cc1ccccc1)NC(=O)[C@@H](NC(=O)CNC(=O)[C@H](CCC(=O)O)NC(=O)C(C)(C)NC(=O)[C@@H](N)Cc1c[nH]cn1)[C@@H](C)O)[C@@H](C)O)C(C)C)C(=O)N[C@@H](C)C(=O)N[C@@H](Cc1c[nH]c2ccccc12)C(=O)N[C@@H](CC(C)C)C(=O)N[C@H](C(=O)N[C@@H](CCCNC(=N)N)C(=O)NCC(=O)N[C@@H](CCCNC(=N)N)C(=O)N[C@@H](CCCCNC(=O)COCCOCCNC(=O)COCCOCCNC(=O)CC[C@H](NC(=O)[C@H]1CC[C@H](CNC(=O)CCCCCCCCCCCCCCCCCCC(=O)O)CC1)C(=O)O)C(N)=O)C(C)C [Example 23, N-epsilon37-[2-(2-{2-[2-(2-{2-[(S)-4-Carboxy-4-({trans-4-[(19-carboxy-nonadecanoylamino)methyl]cyclohexanecarbonyl}amino)butyrylamino]ethoxy}ethoxy)acetylamino]ethoxy}ethoxy)acetyl][Aib8,Glu22,Arg26,Arg34,Lys37]GLP-1-(7-37)amide] | 
